# How the values were obtained:
# [1] = test system: cultured human retinal pigment epithelial cells (RPE); conditions: cited from earlier work
# NSCLC = conditions: cited from earlier work
# [2] = Plasma pharmacokinetics of PF-04928473 after oral PF-04929113; assay type: in vivo, human
structure (smiles),measurement,setting,value
C=CCNC1=C2C[C@@H](C)C[C@H](OC)[C@H](O)[C@@H](C)/C=C(\C)[C@H](OC(N)=O)[C@@H](OC)/C=C\C=C(/C)C(=O)NC(=CC1=O)C2=O [17-AAG],Effect on cultured human retinal pigment epithelial cells,[1],cytostaticity and cytotoxicity
C=CCNc1c(O)cc2c(O)c1C[C@@H](C)C[C@H](OC)[C@H](O)[C@@H](C)/C=C(\C)[C@H](OC(N)=O)[C@@H](OC)/C=C\C=C(/C)C(=O)N2 [IPI-504],Objective response,NSCLC; 76 patients with NSCLC,7%
same,"Objective response, number of patients",NSCLC; 76 patients with NSCLC,5 patients
same,Response among 3 patients with ALK rearrangements,NSCLC,2 PRs and one prolonged SD
CC1(C)CC(=O)c2c(C(F)(F)F)nn(-c3ccc(C(N)=O)c(N[C@H]4CC[C@H](O)CC4)c3)c2C1 [PF-04928473],Time span in which active drug was detectable in plasma,[2]; after oral PF-04929113,detectable at 20 minutes through 48 hours
same,Clearance (CL/Fm),[2]; high value,hepatic and extra-hepatic clearance
same,Volume of distribution (Vz/Fm),[2]; high value,extensive tissue binding
same,half-life,"[2]; human, plasma, oral",8 to 15 h
same,Change of half-life across dose levels,[2]; in vivo,doesn’t appear to change across different dose levels
same,Dose linearity of pharmacokinetics,[2]; in vivo,almost linear PK
same,Dose linearity of pharmacokinetics,"[2]; in vivo, listed as PF 04928473",almost linear pharmacokinetics
same,Absorption following oral administration,[2]; patients,rapid absorption
same,Drug accumulation after multiple dosing,[2]; twice weekly,no drug accumulation
COC1=C2C[C@@H](C)C[C@H](OC)[C@H](O)[C@@H](C)/C=C(\C)[C@H](OC(N)=O)[C@@H](OC)/C=C\C=C(/C)C(=O)NC(=CC1=O)C2=O [geldanamycin],Effect on cultured human retinal pigment epithelial cells,[1],cytostaticity and cytotoxicity

# — publication PMC3207004 (Clinical cancer research : an official journal of the …, 2011)
